This is an account of results in patent US9260404B1, “Preparation of ambrox from labdanes of Dysoxylum hongkongense, and the preparation of new diterpenoids from Dysoxylum hongkongense” (National Taiwan University, priority 2014, dated 2016).

The test system of test [1] is human laryngeal carcinoma Hep-2. Briefly: Cytotoxic assay (MTT), Hep-2. Format: cell-based. The note with it: Hep-2, MTT assay. Here is the method: (§1) Cytotoxic Assay. Human hepatocellular carcinoma Hep-G2, human colon adenocarcinoma WiDr and human laryngeal carcinoma Hep-2 were used as the targets for research, and an antitumor drug, mitomycin C, was the control. The effective dosage (ED50, μg/mL) of the compounds on the cancer cell cytotoxicity was determined by the well-known cytotoxicity assay (3-(4,5-dimethylthiazol-2-yl)-2,5-diphenyltetrazolium bromide (MTT) assay) in the art.
(In general: Tetrazolium assays rely on reduction of a dye to a coloured formazan, in cell work by metabolically active cells.)

Test [2] relates to human colon adenocarcinoma WiDr. The test is described as follows: Cytotoxic assay (MTT), WiDr. Format: cell-based. Here is the method:
as §1

The test system of test [3] is human hepatocellular carcinoma Hep-G2. The test is described as follows: Cytotoxic assay (MTT), Hep-G2. Format: cell-based. Here is the method: as §1
The subject of another test is HSV-1 (KOS strain). Briefly: Anti-HSV-1 plaque reduction assay in Vero cells. Format: cell-based, Herpes Simplex Virus-1. The conditions noted are these: for inhibition (in vitro inhibitory activity against the HSV-1 virus): at 10 μM, plaque formation in Vero cells; for inhibition at 10 µM: Human alphaherpesvirus 1, plaque formation in Vero cells, read-out: inhibition (in vitro inhibitory activity against the HSV-1 virus). How it is done:
Anti Herpes Simplex Virus-1 (HSV-1) Assay, Cell Culture and Virus. Vero cells were cultured in minimal essential medium (MEM; GIBCO®, Grand Island, N.Y.) supplemented with 10% fetal calf serum (FCS; Hyclone™, Logan, Utah), 100 U/mL penicillin and 100 μg/mL streptomycin and incubated at 37° C. in a 5% CO2 incubator. To prepare a stock of HSV-1 (KOS strain, VR-1493, ATCC), Vero cells were infected with HSV-1 at a multiplicity of infection points on three plaque forming units (PFU)/cell and harvested at 24 hours postinfection and centrifuged at 1500×g (Centrifuge 5810 R, Eppendorf) at 4° C. for 20 minutes. The supernatant was collected and stored at −70° C. for use.
Plaque Reduction Assay. The bioassay followed a procedure described previously (Kuo et al., Samarangenin B from Limonium sinense Suppresses Herpes Simplex Virus Type 1 Replication in Vero Cells by Regulation of Viral Macromolecular Synthesis. Antimicrob. Agents Chemother., 2002, 46(9): 2854-2864.). […] The viruses were adsorbed for 1 hour at 37° C. and 1% methylcellulose was added to each well. After 5 days, the virus plaques formed in Vero cells were counted by crystal violet staining. The activities of various compounds and acyclovir for inhibition of plaque formation were calculated.
In general terms: In a plaque reduction assay, fewer plaques than in the control indicate reduced infectivity or spread.

Test [4] deals with elastase release by human neutrophils. The test is described as follows: Elastase release by human neutrophils in response to FMLP/CB. The conditions noted are these: 10 μg/mL. Format: cell-based. How it is done: (§2) Anti-inflammatory Assays, Inhibitory Effect on Superpxide Anion Generation and Elastase Release by Human Neutrophils. Neutrophils were obtained by means of dextran sedimentation and Ficoll centrifugation. Superoxide generation and elastase release were carried out according to a procedure described previously (Hwang et al., Inhibition of Superoxide Anion and Elastase Release in Human Neutrophils by 3′-Isopropoxychalcone via a cAMP-dependent Pathway. Br. J. Pharmacol., 2006, 148(1): 78-87.; and Liaw et al., Frajunolides E-K, Briarane Diterpenes from Junceella fragilis. J. Nat. Prod., 2008, 71(9): 1551-1556.). Superoxide anion production was assayed by monitoring the superoxide dismutase-inhibitable reduction of ferricytochrome c. Elastase release experiments were performed using MeO-Suc-Ala-Ala-Pro-Val p-nitroanilide as the elastase substrate.

In test [5] the test system is superoxide anion generation by human neutrophils. Briefly: Superoxide anion generation by human neutrophils in response to FMLP/CB. The conditions noted are these: 10 μg/mL. Format: cell-based. Here is the method:
as §2

≈ marks a conversion by molar mass, not a printed value.

Turning to `C=C[C@@]1(C)O[C@]2(C)CC[C@H]3C(C)(C)C(=O)CC[C@]3(C)[C@H]2C[C@H]1O` [Compound 8, Dysongensin B], the “ED50 cytotoxic activity against Hep-2 cells” value in test [1] is 16.07 ± 0.17 mg/L (≈ 50.1 µM). Further, the “ED50 cytotoxic activity against WiDr cells” value in test [2] was found to be 19.13 ± 0.56 mg/L (≈ 59.7 µM). In test [3], the “ED50 cytotoxic activity against Hep-G2 cells” value was found to be 18.05 ± 0.58 mg/L (≈ 56.3 µM).
Regarding `C=C[C@@](C)(O)[C@@H]1C[C@@H]2[C@@]3(C)CCC(=O)C(C)(C)[C@@H]3CC[C@@]2(C)O1` [Compound 9, Dysongensin C], the “inhibition (in vitro inhibitory activity against the HSV-1 virus)” value in the test with HSV-1 (KOS strain) worked out at 32.7±4.0%.
The inhibition is how much of the control response was suppressed. With `C=C[C@@](C)(O)[C@H]1C[C@@H]2[C@@]3(C)CCC(=O)C(C)(C)[C@@H]3CC[C@@]2(C)O1` [Compound 10, Dysongensin D], in the test on HSV-1 (KOS strain), the inhibition at 10 µM came out at 25.2 ± 6%.
Consider `C=C[C@](C)(O)[C@H]1C[C@@H]2[C@@]3(C)CCC(=O)C(C)(C)[C@@H]3CC[C@@]2(C)O1` [Compound 11, Dysongensin E], for which the “anti-inflammatory effect on elastase release” value in test [4] is 31.29±6.67%.
For `C=C[C@](C)(O)[C@H]1C[C@@H]2[C@@]3(C)CC[C@H](O)C(C)(C)[C@@H]3CC[C@@]2(C)O1` [Compound 12, Dysongensin F], the “ED50 cytotoxic activity against Hep-2 cells” value in test [1] came out at 17.92 ± 0.25 mg/L (≈ 55.6 µM).
With `C=C[C@@](O)(CO)[C@H]1C[C@@H]2[C@@]3(C)CCC4C[C@@]4(C)[C@@H]3CC[C@@]2(C)O1` (stereo partly drawn) [Compound 13, Dysongensin G], the “inhibition (in vitro inhibitory activity against the HSV-1 virus)” value in the test on HSV-1 (KOS strain) was found to be 29.3±9.0%. Besides, the “ED50 cytotoxic activity against Hep-G2 cells” value in test [3] stood at 37.78 ± 0.81 mg/L (≈ 118 µM).
As to `C=C[C@](O)(CO)[C@@H]1C[C@@H]2[C@@]3(C)CCC4C[C@@]4(C)[C@@H]3CC[C@@]2(C)O1` (stereo partly drawn) [Compound 14, Dysongensin H], the inhibition at 10 µM in the test with HSV-1 (KOS strain) came to 29.7 ± 6%. For the same compound, the “anti-inflammatory effect on superoxide anion generation” value in test [5] amounted to 25.33±4.04%. In addition, the “ED50 cytotoxic activity against WiDr cells” value in test [2] amounted to 15.45 ± 0.73 mg/L (≈ 48.2 µM). Further, in test [3], the “ED50 cytotoxic activity against Hep-G2 cells” value stood at 16.86 ± 0.85 mg/L (≈ 52.6 µM).
On to Dysongensin A [Compound 1], for which the “ED50 cytotoxic activity against WiDr cells” value in test [2] was 18.67 ± 0.56 mg/L. For the same compound, the “ED50 cytotoxic activity against Hep-G2 cells” value in test [3] is 20.34 ± 0.58 mg/L.
